pEC50: −log10 of the molar value. Activity calls are given as the source filed them. The calls are words filed in the database; no cut-off is given here.
Assays:
[1] = Inhibition of IL-1beta, IFN-gamma and TNF-alpha-induced apoptosis of rat INS-1E cells assessed as maximum activity to restoring cell viability after 48 hrs by luciferase based CellTiter-Glo assay; type: functional
[2] = Inhibition of IL-1beta, IFN-gamma and TNF-alpha-induced apoptosis of rat INS-1E cells assessed as restoring cell viability after 48 hrs by luciferase based CellTiter-Glo assay; type: functional
[3] = tested on: INS-1E; assay: Inhibition of IL-1beta, IFN-gamma and TNF-alpha-induced apoptosis of rat INS-1E cells assessed as restoration of mitochondrial membrane potential at 0.25 to 5 uM after 48 hrs by JC-1 staining analysis; type: functional, cell-based
[4] = tested on: INS-1E; assay: Inhibition of IL-1beta, IFN-gamma and TNF-alpha-induced apoptosis of rat INS-1E cells assessed as decrease in nitrite production after 48 hrs by Griess assay; type: functional, cell-based
[5] = tested on: INS-1E; assay: Inhibition of IL-1beta, IFN-gamma and TNF-alpha-induced apoptosis of rat INS-1E cells assessed as decrease in caspase-3 activity after 48 hrs by luminescence assay; type: functional, cell-based
[6] = tested on: INS-1E; assay: Inhibition of IL-1beta, IFN-gamma and TNF-alpha-induced apoptosis of rat INS-1E cells assessed as glucose-stimulated insulin secretion at 5 uM after 48 hrs by ELISA; type: functional, cell-based

COc1ccccc1S(=O)(=O)N(C)C[C@@H]1Oc2c(NC(=O)Nc3cccc4ccccc34)cccc2C(=O)N([C@@H](C)CO)C[C@H]1C
Activity [1]: 0%
pEC50 [2]: < 4.70

COc1ccc(S(=O)(=O)N(C)C[C@@H]2Oc3c(NC(=O)NC4CCCc5ccccc54)cccc3C(=O)N([C@@H](C)CO)C[C@H]2C)cc1 (stereo partly drawn)
Activity [1]: 0%
pEC50 [2]: < 4.70

COc1cccc(S(=O)(=O)N(C)C[C@@H]2Oc3c(NC(=O)Nc4cccc5ccccc45)cccc3C(=O)N([C@@H](C)CO)C[C@H]2C)c1
Activity [1]: 0%
pEC50 [2]: < 4.70

C[C@@H]1CN([C@@H](C)CO)C(=O)c2cccc(NC(=O)Nc3cccc4ccccc34)c2O[C@H]1CN(C)S(=O)(=O)c1ccc(Oc2ccccc2)cc1
Activity [1]: 0%
pEC50 [2]: < 4.70

COc1ccc(S(=O)(=O)N(C)C[C@@H]2Oc3c(NC(=O)Nc4cccc5ccccc45)cccc3C(=O)N(C(C)C)C[C@H]2C)cc1
Activity [1]: 76%
pEC50 [2]: 5.51

C[C@@H]1CN([C@@H](C)CO)C(=O)c2cccc(NC(=O)Nc3cccc(Cl)c3Cl)c2O[C@H]1CN(C)S(=O)(=O)c1ccc2c(c1)OCCO2
Activity [1]: 0%
pEC50 [2]: < 4.70

COc1ccc(S(=O)(=O)N(C)C[C@@H]2Oc3c(NC(=O)Nc4cccc5ccccc45)cccc3C(=O)N([C@@H](C)CO)C[C@H]2C)cc1C
Activity [1]: 76%
pEC50 [2]: 5.46

CC(C)N1C[C@@H](C)[C@H](CN(C)S(=O)(=O)c2ccc3c(c2)OCCO3)Oc2c(NC(=O)Nc3cccc4ccccc34)cccc2C1=O
Activity [1]: 89%
pEC50 [2]: 5.55

COc1ccc(S(=O)(=O)N(C)C[C@@H]2Oc3c(NC(=O)Nc4cccc5ccccc45)cccc3C(=O)N([C@@H](C)CO)C[C@H]2C)cc1
Activity [1]: 62%
pEC50 [2]: 5.31

COc1ccc(S(=O)(=O)N(C)C[C@@H]2Oc3c(NC(=O)Nc4ccc5occc5c4)cccc3C(=O)N([C@@H](C)CO)C[C@H]2C)cc1
Activity [1]: 0%
pEC50 [2]: < 4.70

C[C@@H]1CN([C@@H](C)CO)C(=O)c2cccc(NC(=O)Nc3cccc4ccccc34)c2O[C@H]1CN(C)S(=O)(=O)c1ccc2c(c1)OCCO2
Activity [1]: 99%
pEC50 [2]: 6.11
inhibition [3]: Active
inhibition [4]: Dose-dependent effect
inhibition [5]: Dose-dependent effect
inhibition [6]: Active

COc1ccc(S(=O)(=O)N(C)C[C@@H]2Oc3c(NC(=O)Nc4cccc5c4CCCC5)cccc3C(=O)N([C@@H](C)CO)C[C@H]2C)cc1
Activity [1]: 0%
pEC50 [2]: < 4.70

— ChEMBL document CHEMBL2010751, “Synthesis of a novel suppressor of beta-cell apoptosis via diversity-oriented synthesis” (ACS Med Chem Lett, 2011)
